Each block holds one compound with its values, some of them ahead of it.
What was measured:
[1] = target: Sodium-dependent dopamine transporter (Homo sapiens, UniProt Q01959); experiment: Selectivity interaction (Eurofins-Panlabs screen (receptors)) EUB0000352a SLC6A3; conditions: at 10 µM
[2] = target: Leucine-rich repeat serine/threonine-protein kinase 2 (Homo sapiens, UniProt Q5S007); experiment: Selectivity interaction (KinomeScan (DiscoverX)) EUB0000352a LRRK2; conditions: at 1 µM
[3] = target: T1, Serine/threonine-protein kinase 38-like (Homo sapiens, UniProt Q9Y2H1); experiment: Selectivity interaction (KinomeScan (DiscoverX)) EUB0000352a STK38L; conditions: at 1 µM
T1 sequence (Q9Y2H1 2-464 limits assumed): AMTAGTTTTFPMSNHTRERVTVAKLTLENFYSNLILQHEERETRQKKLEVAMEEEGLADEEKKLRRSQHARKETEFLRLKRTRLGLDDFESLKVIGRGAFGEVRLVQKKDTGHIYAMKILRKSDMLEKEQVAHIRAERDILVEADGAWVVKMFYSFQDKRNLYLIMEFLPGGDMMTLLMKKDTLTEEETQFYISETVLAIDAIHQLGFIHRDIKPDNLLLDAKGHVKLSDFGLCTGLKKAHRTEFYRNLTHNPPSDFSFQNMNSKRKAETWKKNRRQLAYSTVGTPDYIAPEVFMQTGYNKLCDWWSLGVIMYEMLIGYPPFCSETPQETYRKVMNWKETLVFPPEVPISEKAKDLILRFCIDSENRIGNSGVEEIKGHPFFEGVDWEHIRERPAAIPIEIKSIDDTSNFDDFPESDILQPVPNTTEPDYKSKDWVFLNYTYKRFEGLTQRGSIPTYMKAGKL

[4] = target: Ribosomal protein S6 kinase alpha-6 (Homo sapiens) (UniProt Q9UK32); experiment: Selectivity interaction (KinomeScan (DiscoverX)) EUB0000586a RPS6KA6; conditions: at 1 µM
[5] = target: T2, D(1B) dopamine receptor (Homo sapiens, UniProt P21918); experiment: Selectivity interaction (GPCR panel (PDSP screen)) EUB0000586a DRD5; conditions: at 10 µM
T2 sequence (P21918 whole entry): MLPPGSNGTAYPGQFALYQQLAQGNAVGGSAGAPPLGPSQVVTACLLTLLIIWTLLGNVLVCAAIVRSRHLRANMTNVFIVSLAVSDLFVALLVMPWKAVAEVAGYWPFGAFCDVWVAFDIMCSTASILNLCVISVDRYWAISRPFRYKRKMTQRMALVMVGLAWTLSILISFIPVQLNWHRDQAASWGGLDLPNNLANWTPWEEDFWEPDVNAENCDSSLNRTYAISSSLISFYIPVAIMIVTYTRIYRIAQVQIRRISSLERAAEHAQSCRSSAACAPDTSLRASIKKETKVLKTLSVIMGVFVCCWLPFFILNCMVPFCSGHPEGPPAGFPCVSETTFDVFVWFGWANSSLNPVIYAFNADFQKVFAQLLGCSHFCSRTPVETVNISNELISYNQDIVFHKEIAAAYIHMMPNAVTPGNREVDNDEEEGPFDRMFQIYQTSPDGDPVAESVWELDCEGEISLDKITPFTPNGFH

[6] = target: Kappa-type opioid receptor (Homo sapiens, UniProt P41145); experiment: Selectivity interaction (GPCR panel (PDSP screen)) EUB0000586a OPRK1; conditions: at 10 µM
[7] = target: Death-associated protein kinase 1 (Homo sapiens) (UniProt P53355); experiment: Selectivity interaction (KinomeScan (DiscoverX)) EUB0000586a DAPK1; conditions: at 1 µM
Death-associated protein kinase 1 (Homo sapiens), sequence (P53355 whole entry, looked up): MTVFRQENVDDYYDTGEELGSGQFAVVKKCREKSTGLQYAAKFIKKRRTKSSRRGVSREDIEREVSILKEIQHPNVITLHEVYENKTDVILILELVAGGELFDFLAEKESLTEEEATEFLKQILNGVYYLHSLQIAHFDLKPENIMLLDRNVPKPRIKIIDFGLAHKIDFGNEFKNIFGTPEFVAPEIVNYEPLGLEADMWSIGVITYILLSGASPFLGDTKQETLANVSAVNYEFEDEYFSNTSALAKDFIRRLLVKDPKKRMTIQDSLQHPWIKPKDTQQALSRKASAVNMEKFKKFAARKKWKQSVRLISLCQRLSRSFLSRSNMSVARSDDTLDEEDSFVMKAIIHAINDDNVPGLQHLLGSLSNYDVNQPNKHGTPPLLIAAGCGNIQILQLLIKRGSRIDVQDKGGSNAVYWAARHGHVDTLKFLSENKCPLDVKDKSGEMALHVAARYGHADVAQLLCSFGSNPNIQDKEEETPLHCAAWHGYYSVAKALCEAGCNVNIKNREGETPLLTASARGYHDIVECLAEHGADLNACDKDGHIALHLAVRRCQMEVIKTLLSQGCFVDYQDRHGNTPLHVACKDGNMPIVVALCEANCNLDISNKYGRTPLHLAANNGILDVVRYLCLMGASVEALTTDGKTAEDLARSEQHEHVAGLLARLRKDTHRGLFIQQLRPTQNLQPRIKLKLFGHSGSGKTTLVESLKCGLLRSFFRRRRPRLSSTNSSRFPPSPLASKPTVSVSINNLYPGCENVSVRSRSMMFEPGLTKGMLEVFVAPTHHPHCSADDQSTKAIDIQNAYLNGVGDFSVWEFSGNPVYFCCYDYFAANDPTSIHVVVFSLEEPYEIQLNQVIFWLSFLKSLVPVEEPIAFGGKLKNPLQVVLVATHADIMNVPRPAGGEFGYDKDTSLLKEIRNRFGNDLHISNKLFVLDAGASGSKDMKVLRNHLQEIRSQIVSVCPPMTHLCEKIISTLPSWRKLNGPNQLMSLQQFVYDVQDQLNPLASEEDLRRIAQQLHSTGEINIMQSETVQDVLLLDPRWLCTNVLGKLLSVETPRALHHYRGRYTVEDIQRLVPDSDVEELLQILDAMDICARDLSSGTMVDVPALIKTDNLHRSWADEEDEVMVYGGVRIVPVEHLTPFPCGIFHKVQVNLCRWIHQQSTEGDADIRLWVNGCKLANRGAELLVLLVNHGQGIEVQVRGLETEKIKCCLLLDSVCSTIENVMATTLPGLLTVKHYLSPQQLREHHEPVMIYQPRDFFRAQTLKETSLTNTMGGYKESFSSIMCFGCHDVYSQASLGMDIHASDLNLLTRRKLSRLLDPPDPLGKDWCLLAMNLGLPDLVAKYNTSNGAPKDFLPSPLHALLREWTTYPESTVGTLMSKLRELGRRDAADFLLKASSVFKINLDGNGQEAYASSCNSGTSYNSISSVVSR

[8] = target: Serine/threonine-protein kinase tousled-like 1 (Homo sapiens) (UniProt Q9UKI8); experiment: Selectivity interaction (KinomeScan (DiscoverX)) EUB0000586a TLK1; conditions: at 1 µM
[9] = target: Serine/threonine-protein kinase 24 (Homo sapiens) (UniProt Q9Y6E0); experiment: Selectivity interaction (KinomeScan (DiscoverX)) EUB0000586a STK24; conditions: at 1 µM
Serine/threonine-protein kinase 24 (Homo sapiens), sequence (Q9Y6E0 whole entry, looked up): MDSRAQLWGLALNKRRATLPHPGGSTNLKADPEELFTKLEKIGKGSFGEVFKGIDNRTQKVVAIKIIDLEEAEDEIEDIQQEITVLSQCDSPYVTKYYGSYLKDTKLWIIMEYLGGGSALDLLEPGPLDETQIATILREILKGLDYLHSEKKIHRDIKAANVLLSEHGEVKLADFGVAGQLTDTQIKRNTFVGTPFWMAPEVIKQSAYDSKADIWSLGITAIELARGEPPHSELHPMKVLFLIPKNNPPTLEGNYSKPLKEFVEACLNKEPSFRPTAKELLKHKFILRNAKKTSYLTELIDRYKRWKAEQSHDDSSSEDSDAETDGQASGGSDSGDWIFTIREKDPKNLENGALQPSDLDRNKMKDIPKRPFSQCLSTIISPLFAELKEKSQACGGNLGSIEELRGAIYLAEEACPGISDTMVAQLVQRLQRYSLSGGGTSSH

[10] = target: 5-hydroxytryptamine receptor 3A (Homo sapiens) (UniProt P46098); experiment: Selectivity interaction (GPCR panel (PDSP screen)) EUB0000586a HTR3A; conditions: at 10 µM
[11] = target: T1, Serine/threonine-protein kinase 38-like; experiment: Selectivity interaction (KinomeScan (DiscoverX)) EUB0000586a STK38L; conditions: at 1 µM
[12] = target: Ribosomal protein S6 kinase alpha-1 (Homo sapiens) (UniProt Q15418); experiment: Selectivity interaction (KinomeScan (DiscoverX)) EUB0000586a RPS6KA1; conditions: at 1 µM
[13] = target: Ribosomal protein S6 kinase alpha-2 (Homo sapiens) (UniProt Q15349); experiment: Selectivity interaction (KinomeScan (DiscoverX)) EUB0000586a RPS6KA2; conditions: at 1 µM
Ribosomal protein S6 kinase alpha-2 (Homo sapiens), sequence (Q15349 whole entry, looked up): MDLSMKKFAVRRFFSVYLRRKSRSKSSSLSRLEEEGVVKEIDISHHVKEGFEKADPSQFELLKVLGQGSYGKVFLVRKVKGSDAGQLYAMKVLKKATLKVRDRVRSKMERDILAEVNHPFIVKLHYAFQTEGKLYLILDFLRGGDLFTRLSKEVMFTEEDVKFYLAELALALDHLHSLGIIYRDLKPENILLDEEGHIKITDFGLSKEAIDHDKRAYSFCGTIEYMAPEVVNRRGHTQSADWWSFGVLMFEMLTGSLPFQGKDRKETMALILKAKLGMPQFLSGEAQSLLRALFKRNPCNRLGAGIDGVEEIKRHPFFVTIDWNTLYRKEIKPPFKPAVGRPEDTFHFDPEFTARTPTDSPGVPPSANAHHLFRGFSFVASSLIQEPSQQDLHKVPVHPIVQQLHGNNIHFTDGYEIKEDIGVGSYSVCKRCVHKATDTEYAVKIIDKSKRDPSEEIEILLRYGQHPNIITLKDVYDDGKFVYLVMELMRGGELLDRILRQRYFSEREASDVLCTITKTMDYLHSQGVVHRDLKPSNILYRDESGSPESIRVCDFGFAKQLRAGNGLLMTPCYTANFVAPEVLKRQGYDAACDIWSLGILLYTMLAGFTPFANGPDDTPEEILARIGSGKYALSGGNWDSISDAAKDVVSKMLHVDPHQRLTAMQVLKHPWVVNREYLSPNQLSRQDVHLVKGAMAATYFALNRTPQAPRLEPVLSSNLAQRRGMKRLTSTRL

[14] = target: T3, Tyrosine-protein kinase ABL1 (Homo sapiens, UniProt P00519); conditions: at 20 µM
T3 sequence (P00519 whole entry): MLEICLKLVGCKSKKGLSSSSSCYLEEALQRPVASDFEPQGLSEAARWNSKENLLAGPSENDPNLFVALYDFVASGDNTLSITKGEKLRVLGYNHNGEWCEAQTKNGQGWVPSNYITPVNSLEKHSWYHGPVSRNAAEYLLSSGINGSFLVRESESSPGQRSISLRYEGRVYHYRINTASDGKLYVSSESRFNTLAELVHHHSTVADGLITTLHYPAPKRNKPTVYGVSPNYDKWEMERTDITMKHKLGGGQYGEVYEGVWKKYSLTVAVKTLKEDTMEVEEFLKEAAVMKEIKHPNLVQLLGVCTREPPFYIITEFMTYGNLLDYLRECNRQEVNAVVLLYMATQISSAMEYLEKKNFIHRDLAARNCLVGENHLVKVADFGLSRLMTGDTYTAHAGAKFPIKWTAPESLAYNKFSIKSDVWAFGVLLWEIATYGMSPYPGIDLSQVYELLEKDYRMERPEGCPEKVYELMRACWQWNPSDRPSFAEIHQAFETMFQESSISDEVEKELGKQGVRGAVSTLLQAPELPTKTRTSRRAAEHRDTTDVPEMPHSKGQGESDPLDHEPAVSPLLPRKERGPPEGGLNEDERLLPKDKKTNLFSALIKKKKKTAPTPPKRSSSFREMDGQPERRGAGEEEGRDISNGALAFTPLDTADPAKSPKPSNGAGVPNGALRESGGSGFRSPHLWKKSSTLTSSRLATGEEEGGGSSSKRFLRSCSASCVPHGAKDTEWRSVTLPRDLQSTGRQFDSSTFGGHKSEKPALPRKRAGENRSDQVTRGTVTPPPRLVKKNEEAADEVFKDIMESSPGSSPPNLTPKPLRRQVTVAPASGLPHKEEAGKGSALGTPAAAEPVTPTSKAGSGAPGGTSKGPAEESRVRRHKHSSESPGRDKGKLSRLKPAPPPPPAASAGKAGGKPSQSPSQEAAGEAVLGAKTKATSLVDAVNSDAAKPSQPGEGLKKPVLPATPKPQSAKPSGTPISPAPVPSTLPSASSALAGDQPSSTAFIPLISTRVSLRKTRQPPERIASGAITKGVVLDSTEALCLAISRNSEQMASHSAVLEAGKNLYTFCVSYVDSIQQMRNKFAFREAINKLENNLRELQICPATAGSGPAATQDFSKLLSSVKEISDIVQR

[15] = target: T3, Tyrosine-protein kinase ABL1; conditions: at 20 µM; remark: listed apart in the source
[16] = target: Tyrosine-protein kinase JAK1 (Homo sapiens, UniProt P23458); conditions: at 1 µM
[17] = target: Atypical kinase COQ8B, mitochondrial (Homo sapiens) (UniProt Q96D53); experiment: Selectivity interaction (KinomeScan (DiscoverX)) EUB0000740a ADCK4; conditions: at 1 µM
[18] = target: Aurora kinase B (Homo sapiens, UniProt Q96GD4); experiment: Selectivity interaction (KinomeScan (DiscoverX)) EUB0000740a AURKB; conditions: at 1 µM
Aurora kinase B, sequence (Q96GD4 whole entry): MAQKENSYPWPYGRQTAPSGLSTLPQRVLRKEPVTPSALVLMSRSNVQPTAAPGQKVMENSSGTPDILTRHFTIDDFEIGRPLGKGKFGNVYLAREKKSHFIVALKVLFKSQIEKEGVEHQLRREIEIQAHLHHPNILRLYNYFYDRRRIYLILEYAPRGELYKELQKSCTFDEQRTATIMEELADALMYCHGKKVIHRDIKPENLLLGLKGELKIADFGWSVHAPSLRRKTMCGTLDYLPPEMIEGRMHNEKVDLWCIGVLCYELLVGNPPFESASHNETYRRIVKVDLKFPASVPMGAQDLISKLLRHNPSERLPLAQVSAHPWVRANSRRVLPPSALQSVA

[19] = target: Ephrin type-A receptor 5 (Homo sapiens) (UniProt P54756); experiment: Selectivity interaction (KinomeScan (DiscoverX)) EUB0000740a EPHA5; conditions: at 1 µM
[20] = target: T4, Serine/threonine-protein kinase LATS2 (Homo sapiens) (UniProt Q9NRM7); experiment: Selectivity interaction (KinomeScan (DiscoverX)) EUB0000740a LATS2; conditions: at 1 µM
T4 sequence (whole entry): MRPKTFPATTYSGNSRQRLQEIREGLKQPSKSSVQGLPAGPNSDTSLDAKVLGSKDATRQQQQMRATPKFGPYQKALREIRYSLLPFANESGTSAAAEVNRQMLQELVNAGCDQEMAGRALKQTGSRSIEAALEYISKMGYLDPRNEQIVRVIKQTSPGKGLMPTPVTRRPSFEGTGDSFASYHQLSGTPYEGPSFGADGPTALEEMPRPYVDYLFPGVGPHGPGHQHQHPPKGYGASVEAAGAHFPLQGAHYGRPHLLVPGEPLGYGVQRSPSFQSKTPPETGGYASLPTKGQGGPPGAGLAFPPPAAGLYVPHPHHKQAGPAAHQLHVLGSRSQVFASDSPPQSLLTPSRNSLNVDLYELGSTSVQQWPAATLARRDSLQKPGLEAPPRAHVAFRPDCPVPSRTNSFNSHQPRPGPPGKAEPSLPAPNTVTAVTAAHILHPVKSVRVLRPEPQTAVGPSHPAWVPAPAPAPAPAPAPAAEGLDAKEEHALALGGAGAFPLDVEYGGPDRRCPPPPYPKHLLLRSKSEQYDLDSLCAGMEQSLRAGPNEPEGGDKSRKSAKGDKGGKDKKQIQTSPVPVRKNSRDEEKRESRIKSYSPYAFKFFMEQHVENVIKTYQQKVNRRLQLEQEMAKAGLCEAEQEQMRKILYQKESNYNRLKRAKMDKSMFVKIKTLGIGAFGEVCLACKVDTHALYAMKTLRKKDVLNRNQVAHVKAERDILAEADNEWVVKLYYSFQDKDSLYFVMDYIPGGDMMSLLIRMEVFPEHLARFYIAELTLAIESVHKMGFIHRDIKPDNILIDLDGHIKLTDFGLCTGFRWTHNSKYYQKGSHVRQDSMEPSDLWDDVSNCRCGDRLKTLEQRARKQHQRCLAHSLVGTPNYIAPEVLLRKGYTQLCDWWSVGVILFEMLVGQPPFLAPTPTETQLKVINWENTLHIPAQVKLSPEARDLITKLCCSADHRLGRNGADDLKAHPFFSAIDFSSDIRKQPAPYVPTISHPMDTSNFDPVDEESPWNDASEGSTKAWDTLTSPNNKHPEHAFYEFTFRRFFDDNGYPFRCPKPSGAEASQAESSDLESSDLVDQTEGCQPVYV

[21] = target: Transient receptor potential cation channel subfamily M member 6 (Homo sapiens) (UniProt Q9BX84); experiment: Selectivity interaction (KinomeScan (DiscoverX)) EUB0000549a TRPM6; conditions: at 1 µM
[22] = target: Serine/threonine-protein kinase Nek4 (Homo sapiens) (UniProt P51957); experiment: Selectivity interaction (KinomeScan (DiscoverX)) EUB0000549a NEK4; conditions: at 1 µM
[23] = target: T5, Cytoplasmic tyrosine-protein kinase BMX (Homo sapiens) (UniProt P51813); experiment: Selectivity interaction (KinomeScan (DiscoverX)) EUB0000549a BMX; conditions: at 1 µM
T5 sequence (whole entry): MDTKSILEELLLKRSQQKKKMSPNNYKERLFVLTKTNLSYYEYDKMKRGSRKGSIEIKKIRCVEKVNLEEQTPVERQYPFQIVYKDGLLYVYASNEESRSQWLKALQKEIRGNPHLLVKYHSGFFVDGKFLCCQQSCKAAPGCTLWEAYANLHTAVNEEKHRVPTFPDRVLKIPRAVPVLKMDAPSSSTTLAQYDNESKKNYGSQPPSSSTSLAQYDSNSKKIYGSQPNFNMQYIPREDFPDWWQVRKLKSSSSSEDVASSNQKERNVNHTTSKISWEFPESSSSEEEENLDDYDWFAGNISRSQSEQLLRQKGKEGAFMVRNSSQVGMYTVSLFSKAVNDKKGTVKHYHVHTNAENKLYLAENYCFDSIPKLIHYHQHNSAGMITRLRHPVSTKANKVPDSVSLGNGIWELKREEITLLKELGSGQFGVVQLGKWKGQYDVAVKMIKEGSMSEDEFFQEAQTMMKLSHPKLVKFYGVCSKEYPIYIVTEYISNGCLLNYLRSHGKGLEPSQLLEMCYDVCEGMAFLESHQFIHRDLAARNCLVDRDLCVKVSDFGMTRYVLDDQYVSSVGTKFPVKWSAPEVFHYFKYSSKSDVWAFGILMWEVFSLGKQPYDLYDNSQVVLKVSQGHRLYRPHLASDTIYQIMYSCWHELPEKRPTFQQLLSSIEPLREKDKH

[24] = target: T1, Serine/threonine-protein kinase 38-like; experiment: Selectivity interaction (KinomeScan (DiscoverX)) EUB0000549a STK38L; conditions: at 1 µM
[25] = target: Beta-1 adrenergic receptor (Homo sapiens) (UniProt P08588); experiment: Selectivity interaction (Eurofins-Panlabs panel (at Boehringer Ingelheim)) EUB0000314b ADRB1; conditions: at 10 µM
[26] = target: T2, D(1B) dopamine receptor; experiment: Selectivity interaction (GPCR panel (PDSP screen)) EUB0000314b DRD5; conditions: at 10 µM
[27] = target: Gamma-aminobutyric acid receptor subunit beta-2 (Homo sapiens) (UniProt P47870); experiment: Selectivity interaction (Eurofins-Panlabs panel (at Boehringer Ingelheim)) EUB0000314b GABRB2; conditions: at 10 µM
[28] = target: T4, Serine/threonine-protein kinase LATS2 (Homo sapiens); experiment: Selectivity interaction (KinomeScan (DiscoverX)) EUB0000314b LATS2; conditions: at 1 µM
[29] = target: 5-hydroxytryptamine receptor 1B (Homo sapiens) (UniProt P28222); experiment: Selectivity interaction (GPCR panel (PDSP screen)) EUB0000343a HTR1B; conditions: at 10 µM
[30] = target: Serine/threonine-protein kinase Nek1 (Homo sapiens) (UniProt Q96PY6); experiment: Selectivity interaction (KinomeScan (DiscoverX)) EUB0000343a NEK1; conditions: at 1 µM
[31] = target: T6, Phosphatidylinositol 5-phosphate 4-kinase type-2 gamma (Homo sapiens) (UniProt Q8TBX8); experiment: Selectivity interaction (KinomeScan (DiscoverX)) EUB0000343a PIP4K2C; conditions: at 1 µM
T6 sequence (whole entry): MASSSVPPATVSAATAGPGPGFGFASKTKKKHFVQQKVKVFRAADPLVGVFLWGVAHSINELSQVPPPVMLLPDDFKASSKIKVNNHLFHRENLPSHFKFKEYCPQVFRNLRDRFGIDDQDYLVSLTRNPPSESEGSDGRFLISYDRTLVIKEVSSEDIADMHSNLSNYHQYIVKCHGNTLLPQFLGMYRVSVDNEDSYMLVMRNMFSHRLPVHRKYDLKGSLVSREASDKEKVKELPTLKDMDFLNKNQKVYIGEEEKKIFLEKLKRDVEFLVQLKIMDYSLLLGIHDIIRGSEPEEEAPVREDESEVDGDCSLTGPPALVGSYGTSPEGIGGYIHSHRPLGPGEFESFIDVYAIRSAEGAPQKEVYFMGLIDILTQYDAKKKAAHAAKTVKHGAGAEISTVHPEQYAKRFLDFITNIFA

% of inhibition [1]: 71% | % of control [2]: 43% | % of control [3]: 34%
SMILES: CS(=O)(=O)c1cc(C2(NC(=O)c3cncc4c3cnn4-c3ccc(F)cc3)CC2)ccn1

% of control [4]: 0% | % of inhibition [5]: 32% | % of inhibition [6]: 28% | % of control [8]: 0% | % of control [9]: 0% | % of inhibition [10]: 21% | % of control [11]: 38% | % of control [12]: 0% | % of control [13]: 0%
SMILES: CCS(=O)(=O)c1cc2cc(C[C@@](O)(CC(C)(C)c3ccc(F)cc3C(N)=O)C(F)(F)F)[nH]c2cn1
% of control [7]: 0%

% of inhibition [14]: 67% | % of control [15]: 33% | % of control [16]: 33%
SMILES: CN(C)C(=O)Cn1cc(-c2nc([C@@](C)(c3ccc(-c4cnc(N)nc4)cc3)C3CC3)no2)cn1

% of control [17]: 44% | % of control [18]: 41% | % of control [19]: 41% | % of control [20]: 46%
SMILES: CN(C)C(=O)Cn1cc(-c2nc(C3(c4ccc(-c5cnc(N)nc5)cc4)CC3)no2)cn1

% of control [21]: 0% | % of control [22]: 12% | % of control [23]: 40% | % of control [24]: 48%
SMILES: C[C@@]1(Cc2ccc(C#N)cc2)C(=O)N(c2cc(Cl)cc(Cl)c2)c2ncc(C(=O)NC3(c4nc(C5CCC5)no4)CC3)n21

% of control [25]: 75% | % of inhibition [26]: 34% | % of control [27]: 75% | % of control [28]: 40%
SMILES: CCS(=O)(=O)c1cc2cc(C[C@](O)(CC(C)(C)c3ccc(F)cc3C(N)=O)C(F)(F)F)[nH]c2cn1

% of inhibition [29]: 47.7% | % of control [30]: 45% | % of control [31]: 0%
SMILES: CS(=O)(=O)NCC[C@H](NC(=O)c1cncc2c1cnn2-c1ccc(F)cc1)c1ccnc(S(C)(=O)=O)c1

Reference: ChEMBL document CHEMBL5212743, “Selectivity Literature for EUbOPEN Chemogenomics Library wave 3” (2023)
